We go through 9 molecules from patent US10752588B2 (The Broad Institute, Inc., priority 2014, dated 2020).

For data set [1], the target named is T1, human D2R/β-arrestin (Homo sapiens (Human), UniProt P14416). The data set is described as follows: β-Arrestin agonist assay (PathHunter). Conditions: CHO-K1 cell line expressing human D2R/β-arrestin. Format: cell-based. The method, boiled down: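 Readout follows addition of Buffer:Emerald II:Galactor-Star reagent (19:5:1) to agonist-treated plates, measured as luminescence or fluorescence.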

The target in data set [2] is T1, human D2R/β-arrestin. The data set is described as follows: Gi/cAMP agonist assay (Lance Ultra cAMP, Forskolin). It counts as cell-based. Particulars: CHO-K1 cell line expressing human D2R/β-arrestin. The method, boiled down: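 Read-out was Lance Ultra competitive TR-FRET (Eu-cAMP tracer plus ULight-anti-cAMP) following forskolin-induced cAMP production. Before forskolin stimulation, compounds were pin-transferred onto the seeded cells for 10 min at 37 °C.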

A short description of data set [3]: Solubility in PBS. Format: physicochemical. Particulars: aqueous buffer.
Data set [4] has as its system plasma protein. The data set is described as follows: Plasma protein binding, human. It counts as in vitro ADME. Particulars: plasma, read-out: Plasma Protein Binding % bound.
The subject of data set [5] is plasma protein. The data set is described as follows: Plasma protein binding, mouse. It counts as in vitro ADME. Particulars: plasma, read-out: Plasma Protein Binding % bound.
Data set [6] concerns plasma protein. The data set is described as follows: Plasma protein binding, rat. Format: in vitro ADME. Particulars: plasma, read-out: Plasma Protein Binding % bound.
A short description of data set [7]: Plasma stability, human. Format: in vitro ADME.
Data set [8] is described as follows: Plasma stability, rat. Format: in vitro ADME.
Data set [9] in a line: Microsomal stability, human. It counts as in vitro ADME.
A short description of data set [10]: Microsomal stability, rat. Format: in vitro ADME.
For data set [11], the target named is T1, human D2R/β-arrestin. The data set is described as follows: cell-based. Conditions: β-arrestin Antagonist, CHO-K1 cell line expressing human D2R/β-arrestin; quinpirole used as agonist.
In data set [12] the target is T1, human D2R/β-arrestin. The data set is described as follows: cell-based. Conditions: cAMP Antagonist, CHO-K1 cell line expressing human D2R/β-arrestin; quinpirole used as agonist.
A short description of data set [13]: Plasma stability, mouse.
Data set [14] is described as follows: Microsomal stability, mouse.

Converted amounts (≈) assume the structure as drawn. Some results are limits rather than exact numbers.

T1 sequence (P14416 whole entry): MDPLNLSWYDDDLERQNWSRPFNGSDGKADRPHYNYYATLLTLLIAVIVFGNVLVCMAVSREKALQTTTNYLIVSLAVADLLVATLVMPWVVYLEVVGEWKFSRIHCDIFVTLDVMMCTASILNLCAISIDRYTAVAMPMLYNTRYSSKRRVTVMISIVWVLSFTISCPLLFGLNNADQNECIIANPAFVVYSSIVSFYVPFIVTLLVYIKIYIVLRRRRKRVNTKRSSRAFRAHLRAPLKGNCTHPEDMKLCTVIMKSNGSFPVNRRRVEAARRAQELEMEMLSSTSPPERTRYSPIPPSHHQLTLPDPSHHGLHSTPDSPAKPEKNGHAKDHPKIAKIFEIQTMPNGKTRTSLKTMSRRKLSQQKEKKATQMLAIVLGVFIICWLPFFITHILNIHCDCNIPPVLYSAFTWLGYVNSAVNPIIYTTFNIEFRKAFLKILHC

For the molecule `O=C(NC(c1ccc(Cl)cc1)c1ccccn1)C1CCN(CCOc2ccc(F)cc2)CC1` (stereo not drawn) [Compound 5], the EC50 in [1] was more than 30 µM; in data set [2], 10 to 30 µM. Further, the solubility in data set [3] was determined as 311 µM (≈ 146 µg/mL). Also, the results for the fraction unbound in [4], in [5] and in data set [6] were 0.195, 0.021 and 0.142, respectively. In addition, the figures for the “Plasma Stability: % remaining after 5 hours” value (“Plasma Stability: % remaining” for short) in data set [7], in [8] and in data set [13] were 91.2%, 95.2% and 90.5%, respectively. The “Microsomal Stability: % remaining after 60 minutes” value (“Microsomal Stability: % remaining” below) in data set [9] was found to be 71%; in data set [10], 84%; in data set [14], 42%. Besides, the IC50 in data set [11] and in data set [12] was 1 to 10 µM each time.

As for `O=C(NC(c1ccc(Cl)cc1)c1ccccn1)C1CCN(CCOc2cc(F)ccc2F)CC1` (stereo not drawn) [Compound 14], the concentration giving a half-maximal response (EC50) in [1] was more than 30 µM; in data set [2], less than 0.1 µM. The molecule further gave a solubility in data set [3] of 36.1 µM (≈ 17.5 µg/mL). The fraction unbound came out at 0.009 in [4], 0.015 in data set [5] and 0.006 in data set [6]. Moreover, the entries for the “Plasma Stability: % remaining” value in data set [7], in [8] and in data set [13] were 96.7%, 78.2% and 100%, respectively. Further, the “Microsomal Stability: % remaining” value is on record as 49% in data set [9], 44% in [10] and 11% in [14]. Moreover, the figures for the IC50 in data set [11] and in data set [12] were 0.1 to 1 µM and more than 30 µM, respectively.

For the molecule `O=C(NC(c1cccc(Cl)c1)c1ccccn1)C1CCN(CCOc2ccccc2)CC1` (stereo not drawn) [Compound 23], the EC50 in data set [1] and in data set [2] was more than 30 µM in each case. For the same molecule, the concentration in solution in data set [3] (solubility) came to 225 µM (≈ 101 µg/mL). The fraction unbound came out at 0.023 in data set [4], 0.03 in data set [5] and 0.033 in data set [6]. The “Plasma Stability: % remaining” value came out at 100% in [7], 96% in data set [8] and 100% in [13]. The “Microsomal Stability: % remaining” value was 76% in data set [9], 77% in data set [10] and 41% in data set [14]. Besides, the concentration for half-maximal inhibition (IC50) in [11] and in data set [12] was 0.1 to 1 µM in each case.

For the molecule `O=C(NC(c1cccc(F)c1)c1ccccn1)C1CCN(CCOc2ccccc2)CC1` (stereo not drawn) [Compound 26], the half-maximal effective concentration (EC50) in data set [1] and in data set [2] was more than 30 µM throughout. The molecule further came in with a solubility in data set [3] of 460 µM (≈ 199 µg/mL). The fraction unbound in data set [4] worked out at 0.062; in data set [5], 0.057; in [6], 0.046. In addition, the “Plasma Stability: % remaining” value was 100% in [7], 99% in [8] and 92% in [13]. Besides, the “Microsomal Stability: % remaining” value in [9] came out at 84%; in data set [10] it was 96%; in data set [14], 66%. The IC50 in data set [11] fell in the range of 1 to 10 µM; in [12], 0.1 to 1 µM.

Turning to `O=C(NC(c1ccc(C(F)(F)F)cc1)c1ccccn1)C1CCN(CCOc2ccccc2)CC1` (stereo not drawn) [Compound 31, 1-(2-phenoxyethyl)-N-(pyridin-2-yl(4-(trifluoromethyl)phenyl)methyl) piperidine-4-carboxamide], the concentration for a half-maximal effect (EC50) in data set [1] is more than 30 µM; in data set [2], 0.1 to 1 µM. Moreover, in [3], the solubility was 27 µM (≈ 13.1 µg/mL). The fraction unbound was determined as 0.023 in data set [4], 0.026 in data set [5] and 0.014 in data set [6]. Besides, the figures for the “Plasma Stability: % remaining” value in data set [7], in data set [8] and in [13] were 94.2%, 100% and 84.5%, respectively. The figures for the “Microsomal Stability: % remaining” value in [9], in data set [10] and in [14] were 53%, 55% and 57%, respectively. Moreover, the IC50 in [11] was 1 to 10 µM; in data set [12], more than 30 µM.

Consider `O=C(NC(c1cccc(C(F)(F)F)c1)c1ccccn1)C1CCN(CCOc2ccccc2)CC1` (stereo not drawn) [Compound 32, 1-(2-phenoxyethyl)-N-(pyridin-2-yl(3-(trifluoromethyl)phenyl)methyl) piperidine-4-carboxamide], for which the values for the EC50 in data set [1] and in data set [2] were more than 30 µM and 10 to 30 µM, respectively. The same molecule yielded a solubility in data set [3] of 151 µM (≈ 73 µg/mL). Moreover, the fraction unbound was determined as 0.03 in data set [4], 0.031 in [5] and 0.023 in data set [6]. Moreover, the “Plasma Stability: % remaining” value amounted to 91% in data set [7], 98% in [8] and 74% in data set [13]. Besides, the entries for the “Microsomal Stability: % remaining” value in data set [9], in [10] and in data set [14] were 61%, 46% and 37%, respectively. Further, the IC50 in [11] and in data set [12] was 0.1 to 1 µM each time.

Regarding `O=C(NC(c1ccccc1)c1ccc(Cl)cc1)C1CCN(CCOc2ccccc2)CC1` (stereo not drawn) [Compound 39], the concentration giving a half-maximal response (EC50) in [1] and in [2] was more than 30 µM in each case. The molecule also had a solubility in data set [3] of 3.3 µM (≈ 1.48 µg/mL). Besides, the fraction unbound in data set [4] was 0.021; in data set [5], 0.02; in data set [6] it was 0.046. Besides, the “Plasma Stability: % remaining” value came to 100% in data set [7], 86% in data set [8] and 93% in [13]. Also, the “Microsomal Stability: % remaining” value in [9] was found to be 49%; in data set [10], 55%; in data set [14] it was 65%. Besides, the IC50 in data set [11] and in data set [12] was 0.1 to 1 µM each time.

Take `O=C(NC(c1ccc(Cl)cc1)c1cccc(F)c1)C1CCN(CCOc2ccccc2)CC1` (stereo not drawn) [Compound 41]: the EC50 in data set [1] and in [2] was more than 30 µM each time. The molecule also gave a solubility in [3] of less than 0.1 µM. For the same molecule, the fraction unbound in data set [4] was 0.007; in [5] it was 0.006; in data set [6], 0.014. Also, the “Plasma Stability: % remaining” value in data set [7] is given as 100%; in data set [8], 96%; in [13], 100%. Also, the entries for the “Microsomal Stability: % remaining” value in data set [9], in data set [10] and in data set [14] were 45%, 78% and 64%, respectively. The IC50 in data set [11] was 1 to 10 µM; in [12], 0.1 to 1 µM.

Turning to `O=C(NC(c1ccccc1)c1ccc(F)cc1)C1CCN(CCOc2ccccc2)CC1` (stereo not drawn) [Compound 45], the EC50 in [1] and in [2] was more than 30 µM throughout. For the same molecule, the solubility in data set [3] is 6.5 µM (≈ 2.81 µg/mL). The fraction unbound in data set [4] was 0.017; in [5], 0.015; in [6], 0.012. Also, the results for the “Plasma Stability: % remaining” value in data set [7], in data set [8] and in data set [13] were 95%, 85% and 91%, respectively. Moreover, the “Microsomal Stability: % remaining” value in [9] is 56%; in [10], 59%; in data set [14], 62%. Besides, the IC50 in [11] and in data set [12] was less than 0.1 µM in each case.

What is called EC50 is the concentration that produces a half-maximal response. By solubility is commonly meant how much of the substance goes into solution per volume. High values mean much dissolved substance, low ones little dissolved substance. The term IC50 denotes the midpoint of a concentration-inhibition curve. A lower IC50 goes with greater potency in that assay.
